Drawing on patent publication US20240199584A1, “KRAS INHIBITORS” (Bristol-Myers Squibb Company, priority 2022, published 2024), this text covers IC50 for 6 compounds.

The target of one test is T1, KRAS G12A (Homo sapiens, UniProt P01116, G12A).
T1 construct: expressed in transfected cells
In words: Cellular KRAS:RAF Disruption Assay (NanoBRET), KRAS G12A. It is filed as cell-based. To be noted: HEK293 T cells co-expressing RAF1 and KRAS G12A, 24 hours; read-out: RAS::RAF binding via NanoBRET IC50, KRAS G12A. Here is the method: (§1) Cellular KRAS:RAF Disruption Assay
(§2) Stable cell lines (HEK293 T) were generated to co-express RAF1 and mutant or wild type KRAS, as indicated, using the BiBRET vector (Promega). Engineered cell lines were suspended in media (OptiMEM, […]), plated in 384-well plates (8000 cells/well), and allowed to rest for 1.5 hours. Cells were treated with compounds for 24 hours, and NanoBRET NanoGlo substrate (Promega) was added per the manufacturer's instructions.
For orientation: Bioluminescence resonance energy transfer reports proximity on the nanometre scale.

Test [1] concerns the target T2, KRAS G12D (Homo sapiens, UniProt P01116, G12D). Briefly: biochemical.
Procedure: Recombinant GST-RAF1 RBD (Ras binding domain) (9 nM) was added, followed by the addition of SA-Tb (0.25 nM), and the reaction mixture was incubated for 3 hours. HTRF (Homogeneous Time-Resolved Fluorescence) signal was measured (PerkinElmer Envision), the signal ratio (λem 520/λem 495) was calculated, and IC50 values were calculated from the dose-response curve.
Another test concerns the target T3, KRAS G12V (Homo sapiens, UniProt P01116, G12V).
T3 construct: expressed in transfected cells
Briefly: Cellular KRAS:RAF Disruption Assay (NanoBRET), KRAS G12V. It is filed as cell-based. To be noted: HEK293 T cells co-expressing RAF1 and KRAS G12V, 24 hours; read-out: RAS::RAF binding via NanoBRET IC50, KRAS G12V. On the procedure:
as §1, §2

The next test addresses T4, KRAS WT (Homo sapiens, UniProt P01116).
T4 construct: expressed in transfected cells
In words: Cellular KRAS:RAF Disruption Assay (NanoBRET), KRAS WT. To be noted: HEK293 T cells co-expressing RAF1 and wild type KRAS, 24 hours; read-out: RAS::RAF binding via NanoBRET IC50, KRAS WT. It is filed as cell-based. Here is the method: as §1, §2

The next test addresses T5, KRAS Q61R (Homo sapiens, UniProt P01116, Q61R).
T5 construct: expressed in transfected cells
In words: Cellular KRAS:RAF Disruption Assay (NanoBRET), KRAS Q61R. To be noted: HEK293 T cells co-expressing RAF1 and KRAS Q61R, 24 hours; read-out: RAS::RAF binding via NanoBRET IC50, KRAS Q61R. It is filed as cell-based. Here is the method:
as §1, §2

The target of the next test is T6, KRAS G13D (Homo sapiens, UniProt P01116, G13D).
T6 construct: expressed in transfected cells
T6 sequence (P01116 1-188 isoform P01116-2 G13D): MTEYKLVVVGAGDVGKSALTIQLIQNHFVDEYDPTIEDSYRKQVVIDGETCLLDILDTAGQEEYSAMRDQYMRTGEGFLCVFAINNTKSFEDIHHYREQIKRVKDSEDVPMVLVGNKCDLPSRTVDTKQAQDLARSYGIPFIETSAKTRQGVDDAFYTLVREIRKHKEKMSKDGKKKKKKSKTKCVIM
In words: Cellular KRAS:RAF Disruption Assay (NanoBRET), KRAS G13D. To be noted: HEK293 T cells co-expressing RAF1 and KRAS G13D, 24 hours; read-out: RAS::RAF binding via NanoBRET IC50, KRAS G13D. The class given is cell-based. Here is the method:
as §1, §2

For another test, the target named is T7, KRAS G12R (Homo sapiens, UniProt P01116, G12R).
T7 construct: expressed in transfected cells
T7 sequence (P01116 1-188 isoform P01116-2 G12R): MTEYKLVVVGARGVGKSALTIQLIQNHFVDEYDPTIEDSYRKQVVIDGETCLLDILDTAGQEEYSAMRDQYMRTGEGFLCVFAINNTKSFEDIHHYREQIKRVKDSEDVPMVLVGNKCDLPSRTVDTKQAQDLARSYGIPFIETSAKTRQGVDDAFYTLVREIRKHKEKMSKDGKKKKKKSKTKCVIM
Briefly: Cellular KRAS:RAF Disruption Assay (NanoBRET), KRAS G12R. The class given is cell-based. The settings on record: HEK293 T cells co-expressing RAF1 and KRAS G12R, 24 hours; read-out: RAS::RAF binding via NanoBRET IC50, KRAS G12R. Here is the method:
as §1, §2

Test [2] concerns the target T2, KRAS G12D. In words: biochemical. This is another data set of the same source.
Procedure: BIODIPY-labeled GDP (BIODIPY: dipyrrometheneboron difluoride) (400 nM) and recombinant SOS (son of sevenless protein) (10 nM) were added, and the reaction was incubated for 30 minutes. HTRF signal was measured (PerkinElmer Envision), the signal ratio (λem 520/λem 495) was calculated, and IC50 values were calculated from the dose-response curve.
The target of a further test is T8, KRAS A146T (Homo sapiens, UniProt P01116, A146T).
T8 construct: expressed in transfected cells
T8 sequence (P01116 1-188 isoform P01116-2 A146T): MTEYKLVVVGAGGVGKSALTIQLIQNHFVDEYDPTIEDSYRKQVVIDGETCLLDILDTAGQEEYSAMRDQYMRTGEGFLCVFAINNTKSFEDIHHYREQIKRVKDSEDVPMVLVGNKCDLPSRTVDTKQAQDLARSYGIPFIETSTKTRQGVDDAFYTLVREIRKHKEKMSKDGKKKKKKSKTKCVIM
In words: Cellular KRAS:RAF Disruption Assay (NanoBRET), KRAS A146T. The class given is cell-based. To be noted: HEK293 T cells co-expressing RAF1 and KRAS A146T, 24 hours; read-out: RAS::RAF binding via NanoBRET IC50, KRAS A146T. On the procedure: as §1, §2

In a further test the target is T9, KRAS G12S (Homo sapiens, UniProt P01116, G12S).
T9 construct: expressed in transfected cells
T9 sequence (P01116 1-188 isoform P01116-2 G12S): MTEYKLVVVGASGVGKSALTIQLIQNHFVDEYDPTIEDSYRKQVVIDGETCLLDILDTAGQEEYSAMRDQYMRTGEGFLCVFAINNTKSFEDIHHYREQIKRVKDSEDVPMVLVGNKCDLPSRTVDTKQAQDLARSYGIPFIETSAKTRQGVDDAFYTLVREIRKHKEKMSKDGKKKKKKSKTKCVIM
In words: Cellular KRAS:RAF Disruption Assay (NanoBRET), KRAS G12S. The class given is cell-based. The settings on record: HEK293 T cells co-expressing RAF1 and KRAS G12S, 24 hours; read-out: RAS::RAF binding via NanoBRET IC50, KRAS G12S. Here is the method: as §1, §2

The next test deals with T10, KRAS Q61H (Homo sapiens, UniProt P01116, Q61H).
T10 construct: expressed in transfected cells
T10 sequence (P01116 1-188 isoform P01116-2 Q61H): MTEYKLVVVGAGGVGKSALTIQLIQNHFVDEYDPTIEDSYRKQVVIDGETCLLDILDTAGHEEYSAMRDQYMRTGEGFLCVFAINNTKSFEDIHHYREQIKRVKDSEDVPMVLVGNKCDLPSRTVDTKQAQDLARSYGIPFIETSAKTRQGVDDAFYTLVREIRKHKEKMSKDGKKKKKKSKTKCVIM
In words: Cellular KRAS:RAF Disruption Assay (NanoBRET), KRAS Q61H. The settings on record: HEK293 T cells co-expressing RAF1 and KRAS Q61H, 24 hours; read-out: RAS::RAF binding via NanoBRET IC50, KRAS Q61H. The class given is cell-based. Here is the method:
as §1, §2

A further test concerns the target T11, KRAS G12C (Homo sapiens, UniProt P01116, G12C).
T11 construct: expressed in transfected cells
Briefly: Cellular KRAS:RAF Disruption Assay (NanoBRET), KRAS G12C. The settings on record: HEK293 T cells co-expressing RAF1 and KRAS G12C, 24 hours; read-out: RAS::RAF binding via NanoBRET IC50, KRAS G12C. The class given is cell-based. Here is the method: as §1, §2

Where two headings read alike, the source gives them in different places.

T1 sequence (P01116 1-188 isoform P01116-2 G12A): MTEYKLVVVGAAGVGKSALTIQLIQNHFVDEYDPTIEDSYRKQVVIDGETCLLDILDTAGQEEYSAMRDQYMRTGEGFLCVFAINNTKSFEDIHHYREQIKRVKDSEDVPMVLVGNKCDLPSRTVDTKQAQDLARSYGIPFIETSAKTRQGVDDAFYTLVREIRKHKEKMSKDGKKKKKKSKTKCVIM
T5 sequence (P01116 1-188 isoform P01116-2 Q61R): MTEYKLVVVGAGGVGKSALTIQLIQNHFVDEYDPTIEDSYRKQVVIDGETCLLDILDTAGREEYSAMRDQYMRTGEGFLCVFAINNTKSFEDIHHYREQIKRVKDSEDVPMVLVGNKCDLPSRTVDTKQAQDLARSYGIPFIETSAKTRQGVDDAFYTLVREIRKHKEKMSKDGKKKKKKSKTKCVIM
T11 sequence (P01116 1-188 isoform P01116-2 G12C): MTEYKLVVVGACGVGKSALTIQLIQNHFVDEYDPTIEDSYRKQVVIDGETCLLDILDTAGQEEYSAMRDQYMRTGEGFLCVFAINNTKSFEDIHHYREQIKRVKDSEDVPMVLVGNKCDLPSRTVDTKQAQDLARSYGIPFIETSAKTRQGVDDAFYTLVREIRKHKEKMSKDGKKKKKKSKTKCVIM
T2 sequence (P01116 1-188 isoform P01116-2 G12D): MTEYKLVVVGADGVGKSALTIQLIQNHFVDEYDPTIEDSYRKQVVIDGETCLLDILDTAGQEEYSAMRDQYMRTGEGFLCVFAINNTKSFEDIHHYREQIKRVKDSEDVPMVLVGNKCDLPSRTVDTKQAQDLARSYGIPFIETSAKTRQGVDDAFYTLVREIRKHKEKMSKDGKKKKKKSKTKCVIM
T4 sequence (P01116 1-188 isoform P01116-2): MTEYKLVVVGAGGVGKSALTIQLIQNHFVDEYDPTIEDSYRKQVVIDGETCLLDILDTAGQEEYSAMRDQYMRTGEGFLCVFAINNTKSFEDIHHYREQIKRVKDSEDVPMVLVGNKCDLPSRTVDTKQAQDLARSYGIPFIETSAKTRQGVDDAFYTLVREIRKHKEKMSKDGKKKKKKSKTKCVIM
T3 sequence (P01116 1-188 isoform P01116-2 G12V): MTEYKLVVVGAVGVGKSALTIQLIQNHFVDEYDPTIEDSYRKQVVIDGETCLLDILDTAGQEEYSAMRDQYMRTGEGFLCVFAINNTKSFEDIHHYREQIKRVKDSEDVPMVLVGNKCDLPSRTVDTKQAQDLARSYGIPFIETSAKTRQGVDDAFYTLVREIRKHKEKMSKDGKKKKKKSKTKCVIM

For the compound `C#Cc1c(F)ccc2cc(O)cc(-c3ccc4c(N5CC6CCC(C5)N6C(=O)C(F)(F)F)nc(OC[C@]56CCC[C@H]5N(C)CCC6)nc4c3F)c12` [Example 7-7, 1-[3-(2-{[(4aS,7aR)-1-methyl-octahydro-1H-cyclopenta[b]pyridin-4a-yl]methoxy}-7-(8-ethynyl-7-fluoro-3-hydroxynaphthalen-1-yl)-8-fluoroquinazolin-4-yl)-3,8-diazabicyclo[3.2.1]octan-8-yl]-2,2,2-trifluoroethan-1-one], the IC50 at KRAS G12A is 226 nM; at KRAS G12D [1] it was 7 nM; on KRAS G12V, above 5000 nM; at KRAS WT it was 242 nM; at KRAS Q61R it was above 5000 nM; at KRAS G13D it was 407 nM. The IC50 is above 5000 nM on KRAS G12R; below 2 nM against KRAS G12D [2]; 577 nM on KRAS A146T; 422 nM on KRAS G12S; 504 nM on KRAS Q61H; 346 nM on KRAS G12C.

`C#Cc1c(F)ccc2cc(O)cc(-c3ccc4c(N5CCCOCC5)nc(OC[C@]56CCC[C@H]5N(C)CCC6)nc4c3F)c12` [Example 2-3, 4-(2-{[(4aS,7aR)-1-methyl-octahydro-1H-cyclopenta[b]pyridin-4a-yl]methoxy}-8-fluoro-4-(1,4-oxazepan-4-yl)quinazolin-7-yl)-5-ethynyl-6-fluoronaphthalen-2-ol]: the IC50 is 18 nM at KRAS G12A; 172 nM on KRAS G12V; 11 nM on KRAS WT; above 5000 nM on KRAS Q61R; 49 nM at KRAS G13D; 1080 nM at KRAS G12R. Also, the IC50 on KRAS A146T worked out at 81 nM; on KRAS G12S, 39 nM; on KRAS Q61H, 72 nM; on KRAS G12C, 24 nM.

With `C#Cc1c(F)ccc2cc(O)cc(-c3ncc4c(N5CCCOCC5)nc(OC[C@]56CCC[C@H]5N(C)CCC6)nc4c3F)c12` [Example 1-3, 4-(2-{[(4aS,7aR)-1-methyl-octahydro-1H-cyclopenta[b]pyridin-4a-yl]methoxy}-8-fluoro-4-(1,4-oxazepan-4-yl)pyrido[4,3-d]pyrimidin-7-yl)-5-ethynyl-6-fluoronaphthalen-2-ol], the IC50 at KRAS G12A was 2 nM; at KRAS G12D [1], below 2 nM; on KRAS G12V, 19 nM; at KRAS WT, 2 nM; on KRAS Q61R, 1460 nM; on KRAS G13D, 5 nM. Further, the IC50 on KRAS G12R is 133 nM; against KRAS G12D [2], below 2 nM; on KRAS A146T, 16 nM; at KRAS G12S, 4 nM; at KRAS Q61H it was 7 nM; on KRAS G12C, 3 nM.

For the compound `C#Cc1c(F)ccc2cc(O)cc(-c3ncc4c(N5C6COCC5C6)nc(OC[C@@]56CCCN5C[C@H](F)C6)nc4c3F)c12` [Example 1-35, 4-(2-{[(2R,7aS)-2-fluoro-hexahydro-1H-pyrrolizin-7a-yl]methoxy}-8-fluoro-4-{3-oxa-6-azabicyclo[3.1.1]heptan-6-yl}pyrido[4,3-d]pyrimidin-7-yl)-5-ethynyl-6-fluoronaphthalen-2-ol], the IC50 at KRAS G12A is 10 nM; at KRAS G12V, 32 nM; on KRAS WT, 13 nM; at KRAS Q61R, above 10000 nM; at KRAS G13D, 22 nM; on KRAS G12R, 4230 nM. In addition, the IC50 on KRAS A146T amounted to 40 nM; at KRAS G12S, 11 nM; on KRAS Q61H, 31 nM; on KRAS G12C, 12 nM.

As to `C#Cc1c(F)ccc2cc(O)cc(-c3ccc4c(N5CCCOCC5)nc(OC[C@@]56CCCN5C[C@H](F)C6)nc4c3F)c12` [Example 2-2, 4-(2-{[(2R,7aS)-2-fluoro-hexahydro-1H-pyrrolizin-7a-yl]methoxy}-8-fluoro-4-(1,4-oxazepan-4-yl)quinazolin-7-yl)-5-ethynyl-6-fluoronaphthalen-2-ol], the IC50 on KRAS G12A is 3 nM; at KRAS G12V, 26 nM; on KRAS WT it was 2 nM; at KRAS Q61R, 2290 nM; at KRAS G13D it was 8 nM; at KRAS G12R it was 204 nM. Also, the IC50 on KRAS A146T is 17 nM; on KRAS G12S, 6 nM; on KRAS Q61H it was 16 nM; at KRAS G12C it was 5 nM.

For the compound `C#Cc1c(F)ccc2cc(O)cc(-c3ncc4c(N5CC6CCC(C5)N6C(=O)C5CC5)nc(OC[C@@]56CCCN5C[C@H](F)C6)nc4c3F)c12` [Example 6-2, 4-(2-{[(2R,7aS)-2-fluoro-hexahydro-1H-pyrrolizin-7a-yl]methoxy}-4-{8-cyclopropanecarbonyl-3,8-diazabicyclo[3.2.1]octan-3-yl}-8-fluoropyrido[4,3-d]pyrimidin-7-yl)-5-ethynyl-6-fluoronaphthalen-2-ol], the IC50 on KRAS G12A is 29 nM; at KRAS G12D [1], 900 nM; on KRAS G12V, 405 nM; at KRAS WT, 69 nM; on KRAS Q61R, above 10000 nM; at KRAS G13D, 72 nM. For the same compound, the IC50 is above 10000 nM on KRAS G12R; below 2 nM at KRAS G12D [2]; 179 nM at KRAS A146T; 109 nM at KRAS G12S; 234 nM at KRAS Q61H; 117 nM on KRAS G12C.

As a reminder, the IC50 is the concentration needed to halve the response being measured.
